Data published in PubChem BioAssay (NCI).
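Where inhibition never reached the appropriate level, the endpoint shown equals the highest concentration tested. Otherwise, values were interpolated linearly from a five-concentration, 48-hour dose response in 96-well plates. Here, GI50 denotes the concentration required for 50% inhibition of growth. TGI marks complete inhibition of growth.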

Tests used:
Assay in all cases: NCI tumour cell line growth inhibition, 48 h
[1] = system: SK-MEL-5 melanoma
[2] = system: T-47D breast
[3] = system: MALME-3M melanoma
[4] = system: M14 melanoma
[5] = system: SK-MEL-2 melanoma
[6] = system: CAKI-1 renal
[7] = system: SN12C renal
[8] = system: OVCAR-5 ovarian
[9] = system: NCI-H522 lung
[10] = system: MCF7 breast
[11] = system: U251 CNS
[12] = system: SF-268 CNS
[13] = system: SF-539 CNS
[14] = system: HT29 colon
[15] = system: SW-620 colon
[16] = system: EKVX NSCLC
[17] = system: SK-MEL-28 melanoma
[18] = system: NCI-H23 lung
[19] = system: A549 NSCLC
[20] = system: K-562 leukemia
[21] = system: OVCAR-4 ovarian
[22] = system: 786-0 renal
[23] = system: HCT-116 colon
[24] = system: DU-145 prostate
[25] = system: TK-10 renal
[26] = system: HOP-62 NSCLC
[27] = system: MDA-MB-231 breast
[28] = system: LOX IMVI melanoma
[29] = system: UACC-257 melanoma
[30] = system: COLO 205 colon
[31] = system: OVCAR-8 ovarian
[32] = system: NCI-H460 lung
[33] = system: MOLT-4 leukemia
[34] = system: BT-549 breast
[35] = system: UACC-62 melanoma
[36] = system: SNB-19 CNS
[37] = system: PC-3 prostate
[38] = system: RPMI-8226 leukemia
[39] = system: NCI-H226 lung
[40] = system: ACHN renal
[41] = system: NCI/ADR-RES ovarian
[42] = system: SK-OV-3 ovarian
[43] = system: UO-31 renal
[44] = system: HCT-15 colon
[45] = system: IGROV1 ovarian
[46] = system: SNB-75 CNS
[47] = system: HL-60(TB) leukemia
[48] = system: HS 578T breast
[49] = system: SF-295 CNS
[50] = system: SR leukemia
[51] = system: CCRF-CEM leukemia
[52] = system: OVCAR-3 ovarian
[53] = system: KM12 colon
[54] = system: MDA-MB-435
[55] = system: A498 renal

SMILES: Cc1cc2c(cc1C)[n+](=O)c(C(=O)C(C)(C)C)c(C(F)(F)F)n2[O-]
- GI50 [1]: 12.5 µM
- TGI [1]: 26.9 µM
- GI50 [2]: 32.3 µM
- TGI [2]: > 100 µM
- GI50 [3]: 24.2 µM
- TGI [3]: 68.1 µM
- GI50 [4]: 27.5 µM
- TGI [4]: 80.8 µM
- GI50 [5]: 25.6 µM
- TGI [5]: 58.7 µM
- GI50 [6]: 21.3 µM
- TGI [6]: 55 µM
- GI50 [7]: 14.1 µM
- TGI [7]: 62.7 µM
- GI50 [8]: 8.51 µM
- TGI [8]: 54.2 µM
- GI50 [9]: 18.9 µM
- TGI [9]: 49.6 µM
- GI50 [10]: 20.8 µM
- TGI [10]: 77.7 µM
- GI50 [11]: 20.8 µM
- TGI [11]: > 100 µM
- GI50 [12]: 16.6 µM
- TGI [12]: 82.5 µM
- GI50 [13]: 16.6 µM
- TGI [13]: 41.9 µM
- GI50 [14]: 31.7 µM
- TGI [14]: > 100 µM
- GI50 [15]: 28.4 µM
- TGI [15]: > 100 µM
- GI50 [16]: 2.91 µM
- TGI [16]: 9.95 µM
- GI50 [17]: > 100 µM
- TGI [17]: > 100 µM
- GI50 [18]: 16.1 µM
- TGI [18]: 47.6 µM
- GI50 [19]: 8.61 µM
- TGI [19]: 26.2 µM
- GI50 [20]: 4.3 µM
- TGI [20]: 19.9 µM
- GI50 [21]: 26.7 µM
- TGI [21]: > 100 µM
- GI50 [22]: 29.4 µM
- TGI [22]: > 100 µM
- GI50 [23]: 10.6 µM
- TGI [23]: > 100 µM
- GI50 [24]: 5.45 µM
- TGI [24]: 19.5 µM
- GI50 [25]: 75.4 µM
- TGI [25]: > 100 µM
- GI50 [26]: 17 µM
- TGI [26]: 59.1 µM
- GI50 [27]: 13.6 µM
- TGI [27]: 37.5 µM
- GI50 [28]: 9.53 µM
- TGI [28]: 25.7 µM
- GI50 [29]: 7.71 µM
- TGI [29]: 41.2 µM
- GI50 [30]: 54.4 µM
- TGI [30]: > 100 µM
- GI50 [31]: 3.62 µM
- TGI [31]: 15.5 µM
- GI50 [32]: 13.7 µM
- TGI [32]: 34 µM
- GI50 [33]: 8.2 µM
- TGI [33]: 29.3 µM
- GI50 [34]: 12 µM
- TGI [34]: 50.5 µM
- GI50 [35]: 17 µM
- TGI [35]: 71.5 µM
- GI50 [36]: 56.2 µM
- TGI [36]: > 100 µM
- GI50 [37]: 6.24 µM
- TGI [37]: 39.2 µM
- GI50 [38]: 3.57 µM
- TGI [38]: 15.4 µM
- GI50 [39]: 16.2 µM
- TGI [39]: 70.6 µM
- GI50 [40]: 16.1 µM
- TGI [40]: 34.5 µM
- GI50 [41]: 9.08 µM
- TGI [41]: 27.5 µM
- GI50 [42]: 50 µM
- TGI [42]: > 100 µM
- GI50 [43]: 17.4 µM
- TGI [43]: 33.2 µM
- GI50 [44]: 13.7 µM
- TGI [44]: 55.6 µM
- GI50 [45]: 5.17 µM
- TGI [45]: 20.3 µM
- GI50 [46]: 45.9 µM
- TGI [46]: > 100 µM
- GI50 [47]: 5.9 µM
- TGI [47]: 24.5 µM
- GI50 [48]: 14.4 µM
- TGI [48]: 58.6 µM
- GI50 [49]: 28.8 µM
- TGI [49]: 85.4 µM
- GI50 [50]: 11.5 µM
- TGI [50]: 33.2 µM
- GI50 [51]: 12.3 µM
- TGI [51]: 49.3 µM
- GI50 [52]: 21.2 µM
- TGI [52]: 50.1 µM
- GI50 [53]: 25 µM
- TGI [53]: 62.1 µM
- GI50 [54]: 28.2 µM
- TGI [54]: 78.9 µM
- GI50 [55]: 18.1 µM
- TGI [55]: 44.1 µM
